Results from PubChem BioAssay AID1259407 (Chemical Carcinogenesis Research Information System (CCRIS), 2018).
Calls of active or inactive are those of the source. The rule behind the calls is not given here.

System: CCRIS mutagenicity, Ames/micronucleus/aberration tests
Experiment: CCRIS mutagenicity studies
[1] = Test System: AMES SALMONELLA TYPHIMURIUM, Strain/Indicator: TA100, Metabolic Activation: NONE, Method: PREINCUBATION

Measured: mutagenic call

O=C1CCC(=O)O1
inactive: Test System: AMES SALMONELLA TYPHIMURIUM, Strain/Indicator: TA97, Metabolic Activation: HAMSTER, LIVER, S-9, AROCLOR 1254 (10%), Method: PREINCUBATION inactive; negative | Test System: AMES SALMONELLA TYPHIMURIUM, Strain/Indicator: TA97, Metabolic Activation: HAMSTER, LIVER, S-9, AROCLOR 1254 (30%), Method: PREINCUBATION inactive; negative | Test System: AMES SALMONELLA TYPHIMURIUM, Strain/Indicator: TA97, Metabolic Activation: HAMSTER, LIVER, S-9, AROCLOR 1254, Method: PREINCUBATION inactive; negative | Test System: AMES SALMONELLA TYPHIMURIUM, Strain/Indicator: TA97, Metabolic Activation: NONE, Method: PREINCUBATION inactive; negative | Test System: AMES SALMONELLA TYPHIMURIUM, Strain/Indicator: TA97, Metabolic Activation: RAT, LIVER, S-9, AROCLOR 1254 (10%), Method: PREINCUBATION inactive; negative | Test System: AMES SALMONELLA TYPHIMURIUM, Strain/Indicator: TA97, Metabolic Activation: RAT, LIVER, S-9, AROCLOR 1254 (30%), Method: PREINCUBATION inactive; negative | Test System: AMES SALMONELLA TYPHIMURIUM, Strain/Indicator: TA97, Metabolic Activation: RAT, LIVER, S-9, AROCLOR 1254, Method: PREINCUBATION inactive; negative | Test System: AMES SALMONELLA TYPHIMURIUM, Strain/Indicator: TA98, Metabolic Activation: HAMSTER, LIVER, S-9, AROCLOR 1254 (10%), Method: PREINCUBATION inactive; negative | Test System: AMES SALMONELLA TYPHIMURIUM, Strain/Indicator: TA98, Metabolic Activation: HAMSTER, LIVER, S-9, AROCLOR 1254 (30%), Method: PREINCUBATION inactive; negative | Test System: AMES SALMONELLA TYPHIMURIUM, Strain/Indicator: TA98, Metabolic Activation: HAMSTER, LIVER, S-9, AROCLOR 1254, Method: PREINCUBATION inactive; negative | Test System: AMES SALMONELLA TYPHIMURIUM, Strain/Indicator: TA98, Metabolic Activation: NONE, Method: PREINCUBATION inactive; negative | Test System: AMES SALMONELLA TYPHIMURIUM, Strain/Indicator: TA98, Metabolic Activation: RAT, LIVER, S-9, AROCLOR 1254 (10%), Method: PREINCUBATION inactive; negative | Test System: AMES SALMONELLA TYPHIMURIUM, Strain/Indicator: TA98, Metabolic Activation: RAT, LIVER, S-9, AROCLOR 1254 (30%), Method: PREINCUBATION inactive; negative | Test System: AMES SALMONELLA TYPHIMURIUM, Strain/Indicator: TA98, Metabolic Activation: RAT, LIVER, S-9, AROCLOR 1254, Method: PREINCUBATION inactive; negative | Test System: AMES SALMONELLA TYPHIMURIUM, Strain/Indicator: TA100, Metabolic Activation: HAMSTER, LIVER, S-9, AROCLOR 1254 (10%), Method: PREINCUBATION inactive; negative | Test System: AMES SALMONELLA TYPHIMURIUM, Strain/Indicator: TA100, Metabolic Activation: HAMSTER, LIVER, S-9, AROCLOR 1254 (30%), Method: PREINCUBATION inactive; negative | Test System: AMES SALMONELLA TYPHIMURIUM, Strain/Indicator: TA100, Metabolic Activation: HAMSTER, LIVER, S-9, AROCLOR 1254, Method: PREINCUBATION inactive; negative | [1] inactive; negative | Test System: AMES SALMONELLA TYPHIMURIUM, Strain/Indicator: TA100, Metabolic Activation: RAT, LIVER, S-9, AROCLOR 1254 (10%), Method: PREINCUBATION inactive; negative | Test System: AMES SALMONELLA TYPHIMURIUM, Strain/Indicator: TA100, Metabolic Activation: RAT, LIVER, S-9, AROCLOR 1254 (30%), Method: PREINCUBATION inactive; negative | Test System: AMES SALMONELLA TYPHIMURIUM, Strain/Indicator: TA100, Metabolic Activation: RAT, LIVER, S-9, AROCLOR 1254, Method: PREINCUBATION inactive; negative | Test System: AMES SALMONELLA TYPHIMURIUM, Strain/Indicator: TA1535, Metabolic Activation: HAMSTER, LIVER, S-9, AROCLOR 1254 (10%), Method: PREINCUBATION inactive; negative | Test System: AMES SALMONELLA TYPHIMURIUM, Strain/Indicator: TA1535, Metabolic Activation: HAMSTER, LIVER, S-9, AROCLOR 1254 (30%), Method: PREINCUBATION inactive; negative | Test System: AMES SALMONELLA TYPHIMURIUM, Strain/Indicator: TA1535, Metabolic Activation: HAMSTER, LIVER, S-9, AROCLOR 1254, Method: PREINCUBATION inactive; negative | Test System: AMES SALMONELLA TYPHIMURIUM, Strain/Indicator: TA1535, Metabolic Activation: NONE, Method: PREINCUBATION inactive; negative | Test System: AMES SALMONELLA TYPHIMURIUM, Strain/Indicator: TA1535, Metabolic Activation: RAT, LIVER, S-9, AROCLOR 1254 (10%), Method: PREINCUBATION inactive; negative | Test System: AMES SALMONELLA TYPHIMURIUM, Strain/Indicator: TA1535, Metabolic Activation: RAT, LIVER, S-9, AROCLOR 1254 (30%), Method: PREINCUBATION inactive; negative | Test System: AMES SALMONELLA TYPHIMURIUM, Strain/Indicator: TA1535, Metabolic Activation: RAT, LIVER, S-9, AROCLOR 1254, Method: PREINCUBATION inactive; negative | Test System: AMES SALMONELLA TYPHIMURIUM, Strain/Indicator: TA1537, Metabolic Activation: HAMSTER, LIVER, S-9, AROCLOR 1254 (10%), Method: PREINCUBATION inactive; negative | Test System: AMES SALMONELLA TYPHIMURIUM, Strain/Indicator: TA1537, Metabolic Activation: HAMSTER, LIVER, S-9, AROCLOR 1254, Method: PREINCUBATION inactive; negative | Test System: AMES SALMONELLA TYPHIMURIUM, Strain/Indicator: TA1537, Metabolic Activation: NONE, Method: PREINCUBATION inactive; negative | Test System: AMES SALMONELLA TYPHIMURIUM, Strain/Indicator: TA1537, Metabolic Activation: RAT, LIVER, S-9, AROCLOR 1254 (10%), Method: PREINCUBATION inactive; negative | Test System: AMES SALMONELLA TYPHIMURIUM, Strain/Indicator: TA1537, Metabolic Activation: RAT, LIVER, S-9, AROCLOR 1254, Method: PREINCUBATION inactive; negative

Oc1cccc2cc3cccc(O)c3c(O)c12
inactive: Test System: AMES SALMONELLA TYPHIMURIUM, Strain/Indicator: TA100, Metabolic Activation: NONE, Method: STANDARD PLATE inactive; negative | Test System: AMES SALMONELLA TYPHIMURIUM, Strain/Indicator: TA100, Metabolic Activation: RAT, LIVER, S-9, AROCLOR 1254, Method: STANDARD PLATE inactive; negative | Test System: AMES SALMONELLA TYPHIMURIUM, Strain/Indicator: TA1535, Metabolic Activation: NONE, Method: STANDARD PLATE inactive; negative | Test System: AMES SALMONELLA TYPHIMURIUM, Strain/Indicator: TA1535, Metabolic Activation: RAT, LIVER, S-9, AROCLOR 1254, Method: STANDARD PLATE inactive; negative | Test System: E. COLI, Strain/Indicator: WP2 UVRA, Metabolic Activation: HAMSTER, LIVER, S-9, AROCLOR 1254, Method: STANDARD PLATE inactive; negative | Test System: E. COLI, Strain/Indicator: WP2 UVRA, Metabolic Activation: HAMSTER, LIVER, S-9, Method: STANDARD PLATE inactive; negative | Test System: E. COLI, Strain/Indicator: WP2 UVRA, Metabolic Activation: MOUSE, LIVER, S-9, AROCLOR 1254, Method: STANDARD PLATE inactive; negative | Test System: E. COLI, Strain/Indicator: WP2 UVRA, Metabolic Activation: MOUSE, LIVER, S-9, Method: STANDARD PLATE inactive; negative | Test System: E. COLI, Strain/Indicator: WP2 UVRA, Metabolic Activation: NONE, Method: STANDARD PLATE inactive; negative | Test System: E. COLI, Strain/Indicator: WP2 UVRA, Metabolic Activation: RAT, LIVER, S-9, AROCLOR 1254, Method: STANDARD PLATE inactive; negative | Test System: E. COLI, Strain/Indicator: WP2 UVRA, Metabolic Activation: RAT, LIVER, S-9, Method: STANDARD PLATE inactive; negative

C=C(Br)C(=O)O
inactive: [1] inactive; negative | Test System: AMES SALMONELLA TYPHIMURIUM, Strain/Indicator: TA100, Metabolic Activation: RAT, LIVER, MICROSOMES, Method: PREINCUBATION inactive; negative
